Measurements published in paper PMC5104425, “A Novel Selective Inhibitor of Delta-5 Desaturase Lowers Insulin Resistance and Reduces Body Weight in Diet-Induced Obese C57BL/6J Mice” (PLoS ONE, 2016).

Legend:
fat tissues of DIO mice = test: RT-qPCR gene expression in epididymal and subcutaneous fat of DIO mice after 6-week treatment; type: in vivo, C57BL/6J mice; conditions: 10 mg/kg, 6 weeks
Method: Mice fed a HFD that has 41% kcal from fat and contains no AA (D12079B; Research diets, Inc.) from 5 weeks of age were divided into 2 groups at the age of 8 weeks (8 animals per group), and were administered 10 mg/kg compound-326 or vehicle for 6 weeks. After the treatment period, mice were sacrificed and epididymal and subcutaneous fats were harvested for mRNA analysis. Nine animals maintained on a standard chow (CE2, CLEA Japan, Osaka) were used as control.
Total RNA was extracted and purified using RNeasy Mini Kit (QIAGEN, USA). First-strand cDNA was synthesized using High Capacity cDNA Reverse Transcription Kits (Thermo Fisher, USA). The mRNA levels were quantified by an ABI Prism 7900 TaqMan PCR system (Thermo Fisher, USA) according to the manufacturer’s instruction using TaqMan® Universal PCR Mastermix with the primer-probe sets of TaqMan Gene Expression Assays (Thermo Fisher, USA) for the following genes: Ccl2 (chemokine (C-C motif) ligand 2; Mm99999056_m1), Cd68 (CD68 antigen; Mm03047343_m1), Adgre1 (adhesion G protein-coupled receptor E1; Mm00802529_m1), Tnf (tumor necrosis factor; Mm00443258_m1), Il6 (interleukin 6; Mm99999064), Lep (leptin; Mm00434759_m1), Adipoq (adiponectin; Mm00456425_m1), Fads2 ([…]; Mm00517221_m1), Fads1 ([…]; Mm00507605_m1), Ucp1 (uncoupling protein 1; Mm00494069_m1), Elovl3 (elongation of very long chain fatty acids 3; Mm00468164_m1), Cidea (cell death-inducing DNA fragmentation factor, alpha subunit-like effector A; Mm00432554_m1), Otop1 (otopetrin 1; Mm00554705_m1), and Rplp0 (ribosomal protein, large, P0; forward; 5'-[…]-3', reverse; 5'-[…]-3', probe (VIC-5'→3'-TAMRA); 5'-[…]-3'). The Rplp0 mRNA level was used as a reference and relative transcript levels were calculated with the comparative Ct method (2^-ΔΔCT) (Applied Bio-systems).

D5D = test: Blood fatty acids (PD markers AA, DGLA, EPA, DHA) after 6-week treatment in DIO mice; type: in vivo, C57BL/6J mice; conditions: compound-326 0.1, 1, 10 mg/kg, 6 weeks
Method: Fatty acids were extracted from blood and tissues by adding hexane-isopropanol-butylated hydroxytoluene (60:40:0.01, v/v/w). Samples were vortexed for 30 min. The hexane phase was removed and evaporated to dryness under nitrogen stream and vacuum. Dried samples were dissolved in methanol and analyzed by HPLC.
Mice were fed a high-fat diet (HFD) that has 60% kcal from fat and contains 0.09% (w/w) AA (D12492; Research diets, Inc., see S1 Table for fatty acid profile) from 5 weeks of age, and they were divided into 5 groups (7 animals per group) at 11 weeks of age based on BW and daily food intake. In this experiment, 30 mg/kg sibutramine, a […], was used as a positive control for anti-obesity effects. Mice were orally administered compound-326 at doses of 0.1, 1, and 10 mg/kg, sibutramine at a dose of 30 mg/kg, or vehicle for 6 weeks. After 6 weeks, blood concentrations of DGLA and AA under non-fasting condition were evaluated as pharmacodynamics (PD) markers, and oral glucose tolerance test (OGTT) was performed.

rat D9D = target: T1, rat D9D (Rattus norvegicus, UniProt P07308); test: In vitro enzyme assay for desaturase activity (hepatic microsomes), D9D; type: biochemical
T1 construct: using hepatic microsomes prepared from SD rats; from tissue; host or cells: liver microsomes of SD rats (CLEA, Japan)
T1 sequence (P07308 1-358): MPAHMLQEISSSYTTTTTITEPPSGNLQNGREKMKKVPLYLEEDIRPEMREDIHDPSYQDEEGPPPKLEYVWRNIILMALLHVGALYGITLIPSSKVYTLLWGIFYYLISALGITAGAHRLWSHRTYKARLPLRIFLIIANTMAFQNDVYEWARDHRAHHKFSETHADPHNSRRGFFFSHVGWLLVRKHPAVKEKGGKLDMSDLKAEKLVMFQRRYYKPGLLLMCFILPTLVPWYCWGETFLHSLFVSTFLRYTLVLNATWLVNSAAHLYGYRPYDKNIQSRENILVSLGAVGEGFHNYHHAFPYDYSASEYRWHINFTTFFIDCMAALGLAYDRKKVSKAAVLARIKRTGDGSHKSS
Method: (§1) Therefore, we also confirmed that compound-326 has no effect on D9D activity. Inhibitory activity of compound-326 on rat D5D, D6D, and D9D was evaluated using hepatic microsomes prepared from SD rats (CLEA, Japan) as described previously. Assays were performed in a total volume of 30 μL in 96-well plates in a buffer containing 100 mM NaHPO4, 150 mM KCl, 10 mM NaF, 1.5 mM glutathione, 3 mM MgCl2, 1 mM NADH, 3 mM ATP, 0.3 mM CoA-SH, and 0.1% fatty acid free bovine serum albumin (BSA, Sigma, St. Louis, MO); and 0.1 μCi/well of [^14C] DGLA or [^14C] linoleic acids (ARC, St. Louis, MO) were used as substrates for measuring D5D and D6D activities, respectively. After pre-incubation of the test compound with rat liver microsomes (final 1.0 mg/mL) for 5 min, the reaction was started by the addition of NADH, ATP, and the substrates, and the reaction mixture was incubated for another 120 min at room temperature. For D9D assay, [^14C] stearoyl-CoA (PerkinElmer, Waltham, MA) was used in the absence of NADH, ATP, and CoA-SH, and D9D enzyme reaction was performed for 30 min. The reactions were then terminated by the addition of 0.63 N NaOH. […] 2.3 (Fujifilm) and IC50 values were determined using the conversion ratio from the radioactive substrates (20:3n6, 18:2n6 and 18:0) to the products (20:4n6, 18:3n6 and 18:1n9).

rat D5D = target: T2, rat D5D (Rattus norvegicus, UniProt Q920R3); test: In vitro enzyme assay for desaturase activity (hepatic microsomes), D5D; type: biochemical
T2 construct: using hepatic microsomes prepared from SD rats; from tissue; host or cells: liver microsomes of SD rats (CLEA, Japan)
Method: as §1

T2 sequence (Q920R3 whole entry): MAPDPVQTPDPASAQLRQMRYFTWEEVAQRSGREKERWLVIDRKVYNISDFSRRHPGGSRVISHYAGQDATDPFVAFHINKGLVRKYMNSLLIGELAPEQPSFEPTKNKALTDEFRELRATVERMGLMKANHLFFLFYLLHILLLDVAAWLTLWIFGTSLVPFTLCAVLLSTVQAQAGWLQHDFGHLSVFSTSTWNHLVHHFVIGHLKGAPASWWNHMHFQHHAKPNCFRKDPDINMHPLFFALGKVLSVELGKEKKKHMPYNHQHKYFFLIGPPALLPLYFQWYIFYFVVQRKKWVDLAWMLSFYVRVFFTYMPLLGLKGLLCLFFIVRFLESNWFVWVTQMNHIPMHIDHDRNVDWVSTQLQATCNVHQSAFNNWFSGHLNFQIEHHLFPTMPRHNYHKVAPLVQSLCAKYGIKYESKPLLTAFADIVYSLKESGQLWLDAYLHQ

O=C1Cc2c(nc(OCC(F)(F)C(F)(F)F)n(-c3ccc(OCC(F)(F)F)cc3)c2=O)N1 [Compound-326, 2-(2,2,3,3,3-Pentafluoropropoxy)-3-[4-(2,2,2-trifluoroethoxy)phenyl]-5,7-dihydro-3H-pyrrolo[2,3-d]pyrimidine-4,6-dione]
D5D mRNA expression in epididymal fat (fat tissues of DIO mice): upregulated | D6D mRNA expression in epididymal fat (fat tissues of DIO mice): upregulated | beige fat cell-selective genes, including Ucp1, Cidea, Elovl3, and Otop1, in subcutaneous fat (fat tissues of DIO mice): no induction | epididymal Lep mRNA (fat tissues of DIO mice): decreased | epididymal Adipoq mRNA (fat tissues of DIO mice; did not reach statistical difference (p = 0.08)): decreased | Lep mRNA in subcutaneous fat (fat tissues of DIO mice; did not reach statistical significance (p = 0.08)): decrease | Adgre1 expression in epididymal fat (fat tissues of DIO mice; not significant): decreased | Cd68 expression in epididymal fat (fat tissues of DIO mice; not significant): decreased | Ccl2 expression in epididymal fat (fat tissues of DIO mice; significant effect): decreased | blood AA to DGLA ratio (D5D): decreased significantly | blood level of DHA (D5D; dose dependent): decreased | blood level of EPA (D5D; dose dependent): decreased | blood AA (D5D; dose-dependent, non-fasting): decreased | blood DGLA (D5D; dose-dependent, non-fasting): increased | IC50 (rat D9D; Enzyme (hepatic microsomes), rat): > 10 µM | effect on D9D activity (rat D9D; species not given): no effect | IC50 (rat D5D): 0.072 µM
